This is an account of results in patent US20040235890A1, “Remedies for allergic diseases” (priority 2001, published 2004).

The test system of assay [1] is Allergic rhinitis model. The assay is described as follows: Allergic rhinitis model (ovalbumin-sensitised guinea pig, pituita weight). In kind it is in vivo. Conditions: 0.01%, 0.1% and 1.0% solution, 40 uL nasally into both sides, 10 min before 1% ovalbumin; male Crj Hartley guinea pig; monohydrochloride salt. On the procedure: Allergic rhinitis model was produced by administration of ovalbumin to male Crj Hartley guinea pig (6 weeks old) in the procedure shown in table 1.
At day 42, guinea pigs were inserted with tube into the trachea under anesthesia and kept the heat using heat pat. Forty micro liter of (+)-trans-3-imino-5-methyl-7-chloro-2-azabicyclo[4.1.0]heptane monohydrochloride salt (referred to as “compound A”) or physiological saline was administered nasally into both sides. Ten minutes later, 40 uL of 1% ovalbumin was administered nasally into both sides. Thirty minutes after ovalbumin administration, moisture in the nose was removed with absorbent cotton. Fifteen minutes later, absorbent cotton of which weight was measured was inserted into nose for 15 minutes. Pituita weight was calculated by the difference in weight between pre and post insertion.

Assay [2] deals with NOS. Conditions: cited from earlier work.

“Also recorded” adds a separate entry of the source. Where a name gives a salt, the structure may show the parent alone.

Take `C[C@H]1CC(=N)N[C@@H]2[C@H](Cl)[C@@H]21` (relative stereo) [compound A, (+)-trans-3-imino-5-methyl-7-chloro-2-azabicyclo[4.1.0]heptane monohydrochloride salt]: the “Pituita weight (suppression as compared to control, physiological saline)” value in assay [1] is “suppresses pituita weight in dose dependent manner; also recorded: noticeably suppresses pituita weights”.
Take `COC(=O)[C@@H](N)CCCNC(=N)N[N+](=O)[O-]` [L-NAME, N-ω-nitro-L-arginine methylester]: the “increase in NO production and vascular permeability in allergic conjunctivitis” value in assay [2] (Cornea, 19(1), 84-91 (2000)) is listed as “suppressed”. Further, in assay [2] (Prostaglandins, 52(6), 431-446 (1996)), the “prostaglandin E2 production in acute phase of allergic conjunctivitis” value was “suppresses prostaglandin E2 production”. For the same compound, the “effect on allergic conjunctivitis” value in assay [2] (in vivo) is on record as “the action is weak”.
